{
  "source": "paper PMC8950995",
  "about": "“Identification and Functional Analysis of Glutathione S-Transferases from Sitophilus zeamais in Olfactory Organ” (Insects, 2022)",
  "biological_target": "T1, SzeaGSTd1 (Sitophilus zeamais, UniProt A0A8F0D7V2)",
  "T1 sequence (A0A8F0D7V2 22-247)": "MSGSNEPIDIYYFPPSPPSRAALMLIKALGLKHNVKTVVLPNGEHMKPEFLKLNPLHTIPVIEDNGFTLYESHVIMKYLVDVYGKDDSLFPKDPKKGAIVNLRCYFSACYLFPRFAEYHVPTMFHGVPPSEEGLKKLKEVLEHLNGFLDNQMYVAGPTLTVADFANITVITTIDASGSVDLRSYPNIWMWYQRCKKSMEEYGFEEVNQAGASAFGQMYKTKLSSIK",
  "assay": "GSH conjugation, absorbance at […] nm, Michaelis-Menten",
  "assay_type": "biochemical",
  "details": "1 mM GSH, 100 mM phosphate pH 7.2",
  "data": [
    {"smiles": "O=[N+]([O-])c1ccc(Cl)c([N+](=O)[O-])c1", "note": "[CDNB, 1-chloro-2,4-dinitrobenzene]", "values": [
      {"measurement": "Km", "result": "420 ± 40", "unit": "µM"}
    ]}
  ]
}
